The values that follow come from patent US11993640B2, “Treating inflammatory lung disease” (United States Government as represented by the Department …, priority 2019, dated 2024).

Experiment [1] has as its system HT-29 cells. Kind of experiment: In vitro cell viability, colon cancer HT-29. Format: cell-based, human. The settings on record: 5 μM, 72 h; Table 3B. The procedure:
(§1) The inhibitory effects of the various synthesized GHRH antagonists were tested in cell proliferation assays in various human cancer cell lines including stomach cancer (KATOIII, N87), colon cancer (HT-29), urothelial cancer (J82, RT4), pancreatic cancer (PANC-1, CFPAC-1), prostatic cancer (PC3), breast cancer (MX-1, HCC1806), ovarian cancer (SK-OV-3, OVCAR-3) and lung cancer (HCC827, H460).
(§2) Cell culture. Human cancer cell lines including pancreatic (PANC-1 and CFPAC-1), lung (HCC827 and H460), stomach (NCI-N87 and KATOIII), urothelial (J82, RT4), prostatic (PC3), breast (MX-1 and HCC 1806), colorectal (HT-29), and ovarian (SK-OV-3 and OVCAR-3) were obtained from the American Type Culture Collection (ATCC) and cultured at 37° C. in a humidified 95% air/5% CO2 atmosphere in the medium recommended by ATCC.
(§3) In vitro cell viability. Cell viability was analyzed as follows: cancer cells including pancreatic (PANC-1 and CFPAC-1), lung (HCC827 and H460), stomach (NCI-N87 and KATOIII), urothelial (J82, RT4), prostatic (PC3) and breast (MX-1 and HCC 1806), colorectal (HT-29) and ovarian (SK-OV-3 and OVCAR-3) were grown on 96 well plates to ˜60% confluence, the cells were starved for 24 h in culture medium containing 0.5% FBS. […] Cell viability was measured using CellTiter 96 aqueous one solution kit (Promega). […]

The subject of experiment [2] is mouse lung fibroblasts (Mlg 2908). Nature of the experiment: RNAseq of cultured lung fibroblasts. As to conditions: 1 and 5 μM, normal fibroblasts not exposed to bleomycin. Format: cell-based. The procedure:
Lung fibroblasts. Newborn mouse lung fibroblasts (Mlg 2908) were obtained from the American Type Culture Collection, Manassas, VA and cultured in Eagle's minimal essential medium. Cells were grown in 6-well plates before incubation with 1 or 5 μM MIA-602 or vehicle, RNA isolation, and oxygen consumption measurements.
RNA was extracted from cultured fibroblasts using a Direct-zol RNA MicroPrep kit (R2060; Zymo Research, Irvine, CA). Cells were washed with PBS and lysed in TRIreagent™, then purified using Direct-zol RNA columns. DNase I treatment was done in columns and RNA eluted in DNase/Rnase-free water.
RNAseq and Pathway analyses. At least 10 ng of total RNA was used as input for the KAPA RNA HyperPrep Kit with RiboErase (HMR) to create ribosomal RNA-depleted sequencing libraries, including sample indexing, to allow for multiplexing. Cluster generation and sequencing was done on the Illumina cBOT and HiSeq 3000 using reagents provided by Illumina, finally generating >32 million single-end 100 base reads per sample.
De-multiplexed FASTQ files were created with Illumina supplied scripts in BCL2FASTQ software (v2.17). […]
Gene counts were normalized using trimmed mean of M-values (TMM) method. Differential expression between groups was calculated with the exact test implemented in edgeR (Robinson M, McCarthy D, Smyth G (2010). Bioinformatics 26:139-140). […]

For experiment [3], the system named is OVCAR-3 cells. Nature of the experiment: In vitro cell viability, ovarian cancer OVCAR-3. Format: cell-based, human. The settings on record: * at concentration of 2 μM for 72 h; Table 3B. The procedure:
as §1, §2, §3

In experiment [4] the test system is C57Bl/6J mice treated with bleomycin. Kind of experiment: Bleomycin lung injury model, micro-CT of lungs. Format: in vivo, mouse. The settings on record: bleomycin plus MIA-602. The procedure:
Experimental animals. 8-week old C57Bl/6J male mice (The Jackson Laboratory, Bar Harbor, ME) were used in these experiments. Mice weighed about 26 grams at the start. Mice were randomly allocated to the experimental groups and housed in identical filter top cages in a ventilated rack. Mice were exposed to a 12-hour light/dark cycle and had free access to standard laboratory chow and water.
Bleomycin and GHRH-R antagonist treatment. Mice were treated with 0.8 units of bleomycin (Bleomycin for Injection USP, Hospira, Lake Forest, IL) intraperitoneally (IP) on days 1, 3, 7, 10, 14 and 21 (Collins S, Chan-Li Y, Oh M, Vigeland C, Limjunyawong N, Mitzner W, Powell J D, Horton M R (2016). JCI Insight 1(4):1-13). Mice (randomly assigned) were simultaneously treated subcutaneously (sc) with MIA-602 (5 μg/day) or its vehicle (100 μL/day). MIA-602 was dissolved in DMSO (ACS grade; Sigma-Aldrich) and diluted 1:500 in normal saline for daily sc injection on days 0-21.
Tissue preparations. Mice were killed by CO2 inhalation before any treatment, or on days 14 or 28 for micro-CT scans of lungs and harvesting of lung tissue (Vande Velde G, Poelmans J, De Langhe E, Hillen A, Vanoirbeek J, Himmelreich U, Lories R (2016). Dis Model Mech 9:91). […]
Micro-CT. Mice in each group were assessed by micro-CT scans (Bruker SkyScan 1176 Low Dose Micro-CT, Knotich, Belgium) of the lungs after CO2 inhalation. […]

Non-standard residues stand in square brackets, D forms with d. Residues, ends and D or L forms follow the SMILES beside them. *: point of attachment. Phe(F5) = N[C@@H](Cc1c(F)c(F)c(F)c(F)c1F)C(=O)O; hArg = N=C(N)NCCCC[C@H](N)C(=O)O; 12Ado = NCCCCCCCCCCCC(=O)O; Nle = CCCC[C@H](N)C(=O)O; Orn = NCCC[C@H](N)C(=O)O; Abu = CC[C@H](N)C(=O)O; PhAc = O=C(Cc1ccccc1)*

For `CCCC[C@H](NC(=O)[C@@H](NC(=O)[C@H](CC(=O)O)NC(=O)[C@H](CCC(N)=O)NC(=O)[C@H](CC(C)C)NC(=O)[C@H](CC(C)C)NC(=O)[C@H](CCCN)NC(=O)[C@H](Cc1c[nH]cn1)NC(=O)[C@H](C)NC(=O)[C@H](CO)NC(=O)[C@H](CC(C)C)NC(=O)[C@H](CCC(N)=O)NC(=O)[C@H](CC)NC(=O)[C@H](CC(C)C)NC(=O)[C@@H](NC(=O)[C@H](CCCN)NC(=O)[C@H](Cc1c[nH]cn1)NC(=O)[C@H](Cc1ccc(OC)cc1)NC(=O)[C@H](CCCCNC(=N)N)NC(=O)[C@H](C)NC(=O)[C@@H](NC(=O)[C@H](Cc1c(F)c(F)c(F)c(F)c1F)NC(=O)[C@@H](NC(=O)[C@H](C)NC(=O)[C@H](CC(=O)O)NC(=O)[C@@H](CCCNC(=N)N)NC(=O)[C@H](Cc1ccc(O)cc1)NC(=O)CCCCCCCCCCCNC(=O)Cc1ccccc1)[C@@H](C)CC)[C@@H](C)O)C(C)C)[C@@H](C)CC)C(=O)N[C@H](CCCNC(=N)N)C(=O)N[C@@H](CCCCNC(=N)N)C(N)=O` [MIA-602, PhAC-Ada, Tyr D-Arg, Asp, Ala, Ile, 5FPhe, Thr, Ala, Har, Tyr(Me), His, Orn, Val, Leu, Abu, Gin, Leu, Ser, Ala, His, Orn, Leu, Leu, Gin, Asp, Ile, Nle, D-Arg, Har NH2, reference compound] ({PhAc-12Ado}-Y[dR]DAI[Phe(F5)]TA[hArg]Y(Me)H[Orn]VL[Abu]QLSAH[Orn]LLQDI[Nle][dR][hArg]-NH2), in experiment [1], the “In vitro relative inhibitory potency in comparison to MIA-602, HT-29” value amounted to 1. Moreover, in experiment [2], the “Fibroblast gene expression” value is “significant downregulation of genes involved in collagen fibril organization, cell-matrix adhesion and elastic fiber assembly”. Further, in experiment [3], the “In vitro relative inhibitory potency in comparison to MIA-602, OVCAR-3” value came to 1. For the same molecule, in experiment [4], the “Infiltrative densities in lungs on micro-CT” value is recorded as “less prominent infiltrative densities”.
